Results taken from US6326476A, “Heparin derivatives and process for the preparation thereof” (Pharmacia AB, priority 1991, dated 2001).

Test system: Sprague-Dawley rats
Settings: rat, in vivo, 2 mg/kg
Protocol: Res 15 191-197 was performed in Sprague-Dawley rats weighing 200-250 g anaesthetized with Mebumal/Stesolid (Dumex A/S Copenhagen). The template device (Simplate, General Diagnostics, Durham, N.C.) was applied longitudinally to the dorsal part of the tail, taking care to avoid large veins. Blood from the wound was then carefully removed every 30 sec, with blotting paper. A minimum of six rats were used for each compound and dose. Bleeding times were measured from the moment the tail was incised until the first arrest of bleeding. The bleeding time was recorded with an accuracy of 30 sec. Two bleeding times were always determined in each rat, viz. 10 min before and 10 min after drug administration, and the results are expressed as the prolongation of bleeding time.

heparin [Standard heparin]
Prolongation of bleeding time: 12.8 min
